This is an account of results in patent publication US11414379B2, “SPAK kinase inhibitors as neuroprotective agents” (United States Government as represented by the Department …, priority 2018, dated 2022).

By inhibition is commonly meant how much of the control response was suppressed.

One series has as its system humans. The settings on record: in vivo, 25 mg/kg; cited from earlier work.
In series [1] the test system is KCC2 double mutant Thr906A1a/Thr1007Ala. Description: 86Rb+ uptake assay in HEK293 cells. The series is classed as cell-based, human. As to conditions: n=3, p>0.05. Here is the method: (§1) HEK293 cells were plated at 50-60% confluence of in 12-well plates (2.4-cm-diameter per/well) and transfected with wild-type or various mutant forms of full-length flag-tagged human KCCs. Each well of HEK293 cells was transfected with 2.5 μL of 1 mg/mL polyethylenimine and 1 μg of plasmid DNA. The ^86Rb^+-uptake assay was performed on cells at 36 hours post-transfection. Culture medium was aspirated from the wells and replaced with either isotonic or hypotonic medium for 15 min at 37° C., then for a further 15 min with stimulating medium containing additional 1 mM ouabain and 0.1 mM bumetanide, to prevent ^86Rb^+ uptake via the NKCC1 cotransporter. This stimulating medium was then removed and replaced with isotonic medium plus inhibitors containing 2 μCi/mL ^86Rb^+ for 10 min at 37° C., following which cells were rapidly washed three times with the respective ice-cold non-radioactive medium. The cells were lysed in 300 μL of ice-cold lysis buffer and ^86Rb^+ uptake was quantitated by liquid scintillation counting (PerkinElmer).
(§2) Referring to FIG. 8, ^86Rb^+ uptake assays in the presence of ZT-1a is shown. […] 10 min ^86Rb^+ uptake values were quantified by scintillation counting, normalized per mg protein for each condition and plotted for both isotonic and hypotonic conditions. Statistical significance was determined at p<0.05 (both panels).

The next series deals with wild type KCC2. Nature of the series: 86Rb+ uptake assay in HEK293 cells. The series is classed as cell-based, human. As to conditions: n=3. Here is the method:
as §1, §2

The test system of the next series is pNKCC1. Description: IVH-induced phosphorylation in rat choroid plexus, ICV delivery. It counts as in vivo. As to conditions: 48 hrs post-IVH, n=3.
Series [2] relates to mouse model of ischemic stroke. Nature of the series: Ex vivo MRI (T2WI, DTI) 7 days post-stroke. The series is classed as in vivo. As to conditions: p>0.05. As to the method: For ex-vivo MRI, brains were maintained within the skull to avoid anatomical deformation. After overnight post-fixation in 4% PFA, heads were stored in PBS solution at 4° C. […] was performed at 500 MHz using a Bruker AV3HD 11.7 T/89 mm vertical bore small animal MRI scanner, equipped with a 25-mm quadrature RF coil and Paravision 6.0 (Bruker Biospin, Billerica, Mass.).
In a blinded manner, region of interests (ROIs) were manually drawn for the ipsilateral (IL) and contralateral (CL) cortex, striatum, corpus callosum (CC), and external capsule (EC). Values for the fractional anisotropy (FA), […] diffusion coefficient (ADC), and diffusivity were calculated for the entire volume of each ROI.
Referring to FIG. 15A, representative T2WI images and quantitative analyses of lesion volume and atrophy (shrinkage) of ex vivo brains from vehicle (Veh) control and ZT-1a-treated mice at 7 days post-MCAO are shown. […]
Referring to FIG. 15B, representative images of directionally encoded color (DEC) and fractional anisotropy (FA) maps are shown. […] Bar graphs display quantitation of mean values of FA, mean diffusivity (MD), axial diffusivity (AD) and radial diffusivity (RD) of white matter tissues (CC or EC) of ex vivo brain from vehicle control (Veh) and ZT-1a-treated mice at 7 days post-MCAO. […]

A further series has as its system AMPK (hum). Nature of the series: Kinase panel (Dundee profiling). It counts as biochemical, human. Here is the method: The kinase selectivity of ZT-1a was further assessed using standard radioisotopic enzymatic assays against a panel of 140 recombinant kinases (Dundee profiling, Table 2) (Bain et al. (2007) The Biochemical journal 408, 297-315). ZT-1a at a concentration of 10 μM inhibited only MAPKAP-K2 activity 85±7% compared to DMSO control, representing high kinase selectivity.
Referring to Table 2, ZT-1a was tested at 10 and 1 μM against a panel of 140 recombinant kinases in an enzymatic activity-based assay performed by the International Centre for Kinase Profiling in the MRC Protein Phosphorylation and Ubiquitylation Unit. Values represent % residual kinase activity (mean+/−SEM, n=3). Kinases labelled with an asterick* are inhibited ≥50% by ZT-1a.

The target in a further series is FGF-R1 (Homo sapiens, UniProt P11362). Description: Kinase panel (Dundee profiling). The settings on record: read-out: % residual kinase activity. It counts as biochemical. The method, boiled down: (§3)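 Radioisotopic enzymatic activity assay across a panel of 140 recombinant kinases, with test compound at 10 and 1 μM. Values are % residual kinase activity relative to DMSO control, mean±SEM, n=3.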

The target in a further series is HIPK2 (Homo sapiens, UniProt Q9H2X6). Nature of the series: Kinase panel (Dundee profiling). It counts as biochemical. The settings on record: read-out: % residual kinase activity. The method in brief: as §3
A further series has as its target MAPKAP-K2 (Homo sapiens, UniProt P49137). Nature of the series: Kinase panel (Dundee profiling). The series is classed as biochemical. The method in brief:
as §3

For another series, the target named is MARK2 (Homo sapiens, UniProt Q7KZI7). Description: Kinase panel (Dundee profiling). It counts as biochemical. As to conditions: read-out: % residual kinase activity. The method, boiled down:
as §3

The target of another series is MSK1 (Homo sapiens, UniProt O75582). Nature of the series: Kinase panel (Dundee profiling). The series is classed as biochemical. The settings on record: read-out: % residual kinase activity. The method, boiled down:
as §3

The target of another series is ROCK2 (Rattus norvegicus, UniProt Q62868). Description: Kinase panel (Dundee profiling). The series is classed as biochemical. The settings on record: read-out: % residual kinase activity. The method in brief: as §3
For a further series, the target named is RSK1 (Homo sapiens, UniProt Q15418). Nature of the series: Kinase panel (Dundee profiling). It counts as biochemical. As to conditions: read-out: % residual kinase activity. The method in brief:
as §3

Some results are limits rather than exact numbers.

Chain of MAPKAP-K2 (P49137 whole entry, species assumed): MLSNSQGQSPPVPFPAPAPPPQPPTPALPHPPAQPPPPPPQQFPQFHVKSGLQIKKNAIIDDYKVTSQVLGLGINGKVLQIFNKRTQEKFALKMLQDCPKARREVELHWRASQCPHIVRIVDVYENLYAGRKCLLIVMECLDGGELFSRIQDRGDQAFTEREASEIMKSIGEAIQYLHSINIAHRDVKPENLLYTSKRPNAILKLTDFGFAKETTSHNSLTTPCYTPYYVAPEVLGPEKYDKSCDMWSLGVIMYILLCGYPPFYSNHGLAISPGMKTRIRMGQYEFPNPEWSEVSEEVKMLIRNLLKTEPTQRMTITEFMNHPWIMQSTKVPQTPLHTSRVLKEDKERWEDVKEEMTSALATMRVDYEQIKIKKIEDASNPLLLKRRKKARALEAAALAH
Chain of RSK1 (Q15418 whole entry, species assumed): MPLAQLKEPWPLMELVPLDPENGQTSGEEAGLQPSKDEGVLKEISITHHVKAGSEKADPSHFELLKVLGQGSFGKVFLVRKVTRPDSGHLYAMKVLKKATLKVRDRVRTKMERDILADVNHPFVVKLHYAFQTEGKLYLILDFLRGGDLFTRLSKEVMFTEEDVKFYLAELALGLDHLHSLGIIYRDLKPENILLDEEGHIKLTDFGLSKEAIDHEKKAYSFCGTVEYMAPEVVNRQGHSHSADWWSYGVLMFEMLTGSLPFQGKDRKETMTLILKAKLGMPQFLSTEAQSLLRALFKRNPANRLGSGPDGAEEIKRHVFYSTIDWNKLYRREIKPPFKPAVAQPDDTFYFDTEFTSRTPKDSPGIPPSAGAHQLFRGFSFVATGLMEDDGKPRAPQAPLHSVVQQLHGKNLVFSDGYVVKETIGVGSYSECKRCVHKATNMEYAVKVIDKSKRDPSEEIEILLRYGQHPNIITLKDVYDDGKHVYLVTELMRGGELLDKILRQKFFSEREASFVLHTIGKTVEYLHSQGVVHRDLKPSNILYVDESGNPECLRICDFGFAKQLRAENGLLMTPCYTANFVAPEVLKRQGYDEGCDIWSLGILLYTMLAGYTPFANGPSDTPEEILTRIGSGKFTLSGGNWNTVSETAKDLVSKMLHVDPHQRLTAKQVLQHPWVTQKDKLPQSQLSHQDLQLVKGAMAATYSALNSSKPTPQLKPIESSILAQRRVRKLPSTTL
Chain of MARK2 (Q7KZI7 whole entry, species assumed): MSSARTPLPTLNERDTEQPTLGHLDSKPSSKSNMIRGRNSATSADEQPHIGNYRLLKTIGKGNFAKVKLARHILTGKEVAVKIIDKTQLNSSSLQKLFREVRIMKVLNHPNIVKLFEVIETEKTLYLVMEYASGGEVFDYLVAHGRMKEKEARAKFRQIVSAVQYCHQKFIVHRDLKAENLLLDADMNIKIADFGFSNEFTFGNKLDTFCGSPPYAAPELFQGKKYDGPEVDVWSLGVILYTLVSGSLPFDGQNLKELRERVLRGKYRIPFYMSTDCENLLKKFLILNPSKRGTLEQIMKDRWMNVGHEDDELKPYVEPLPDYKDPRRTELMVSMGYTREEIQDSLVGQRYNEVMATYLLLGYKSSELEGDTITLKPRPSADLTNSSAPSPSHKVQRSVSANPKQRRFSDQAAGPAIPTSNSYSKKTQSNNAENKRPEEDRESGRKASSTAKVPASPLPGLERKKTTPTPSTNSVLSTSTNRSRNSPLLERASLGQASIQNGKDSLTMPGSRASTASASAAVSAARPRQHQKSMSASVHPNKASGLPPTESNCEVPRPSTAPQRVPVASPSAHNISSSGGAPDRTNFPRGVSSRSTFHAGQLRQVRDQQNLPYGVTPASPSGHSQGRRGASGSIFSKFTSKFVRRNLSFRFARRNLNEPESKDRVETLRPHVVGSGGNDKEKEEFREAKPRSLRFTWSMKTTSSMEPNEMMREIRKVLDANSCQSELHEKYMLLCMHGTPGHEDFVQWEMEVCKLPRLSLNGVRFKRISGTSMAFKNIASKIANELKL
Chain of HIPK2 (Q9H2X6 whole entry, species assumed): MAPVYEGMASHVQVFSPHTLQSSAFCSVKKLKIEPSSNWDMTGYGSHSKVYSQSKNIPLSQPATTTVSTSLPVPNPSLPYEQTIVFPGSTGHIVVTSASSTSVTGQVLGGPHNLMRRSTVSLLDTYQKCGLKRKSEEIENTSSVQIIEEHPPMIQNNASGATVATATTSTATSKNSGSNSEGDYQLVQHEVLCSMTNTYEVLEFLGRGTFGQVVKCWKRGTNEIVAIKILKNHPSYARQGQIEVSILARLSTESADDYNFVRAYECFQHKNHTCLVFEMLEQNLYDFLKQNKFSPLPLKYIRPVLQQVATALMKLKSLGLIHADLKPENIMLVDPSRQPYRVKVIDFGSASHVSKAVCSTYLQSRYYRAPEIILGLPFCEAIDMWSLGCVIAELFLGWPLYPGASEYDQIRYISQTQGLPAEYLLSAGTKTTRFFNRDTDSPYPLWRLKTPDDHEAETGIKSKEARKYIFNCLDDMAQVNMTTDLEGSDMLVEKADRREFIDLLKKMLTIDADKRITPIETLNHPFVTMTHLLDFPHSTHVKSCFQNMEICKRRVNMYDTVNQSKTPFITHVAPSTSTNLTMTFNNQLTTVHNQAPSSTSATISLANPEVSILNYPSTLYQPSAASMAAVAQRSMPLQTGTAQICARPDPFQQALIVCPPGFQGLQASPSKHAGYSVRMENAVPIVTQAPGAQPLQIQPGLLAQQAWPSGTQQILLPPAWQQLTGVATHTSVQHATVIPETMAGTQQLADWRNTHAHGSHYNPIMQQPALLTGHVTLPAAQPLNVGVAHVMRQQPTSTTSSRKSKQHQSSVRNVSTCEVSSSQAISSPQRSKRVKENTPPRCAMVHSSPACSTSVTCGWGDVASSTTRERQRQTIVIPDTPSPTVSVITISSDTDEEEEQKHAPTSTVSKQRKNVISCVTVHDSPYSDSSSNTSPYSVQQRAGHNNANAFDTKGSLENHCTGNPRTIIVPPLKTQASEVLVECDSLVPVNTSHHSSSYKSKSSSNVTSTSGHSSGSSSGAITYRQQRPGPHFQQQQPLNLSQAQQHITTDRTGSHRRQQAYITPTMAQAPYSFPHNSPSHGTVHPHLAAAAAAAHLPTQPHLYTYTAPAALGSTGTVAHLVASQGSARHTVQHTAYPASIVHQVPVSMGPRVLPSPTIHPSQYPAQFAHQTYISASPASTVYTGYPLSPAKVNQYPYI
Chain of MSK1 (O75582 whole entry, species assumed): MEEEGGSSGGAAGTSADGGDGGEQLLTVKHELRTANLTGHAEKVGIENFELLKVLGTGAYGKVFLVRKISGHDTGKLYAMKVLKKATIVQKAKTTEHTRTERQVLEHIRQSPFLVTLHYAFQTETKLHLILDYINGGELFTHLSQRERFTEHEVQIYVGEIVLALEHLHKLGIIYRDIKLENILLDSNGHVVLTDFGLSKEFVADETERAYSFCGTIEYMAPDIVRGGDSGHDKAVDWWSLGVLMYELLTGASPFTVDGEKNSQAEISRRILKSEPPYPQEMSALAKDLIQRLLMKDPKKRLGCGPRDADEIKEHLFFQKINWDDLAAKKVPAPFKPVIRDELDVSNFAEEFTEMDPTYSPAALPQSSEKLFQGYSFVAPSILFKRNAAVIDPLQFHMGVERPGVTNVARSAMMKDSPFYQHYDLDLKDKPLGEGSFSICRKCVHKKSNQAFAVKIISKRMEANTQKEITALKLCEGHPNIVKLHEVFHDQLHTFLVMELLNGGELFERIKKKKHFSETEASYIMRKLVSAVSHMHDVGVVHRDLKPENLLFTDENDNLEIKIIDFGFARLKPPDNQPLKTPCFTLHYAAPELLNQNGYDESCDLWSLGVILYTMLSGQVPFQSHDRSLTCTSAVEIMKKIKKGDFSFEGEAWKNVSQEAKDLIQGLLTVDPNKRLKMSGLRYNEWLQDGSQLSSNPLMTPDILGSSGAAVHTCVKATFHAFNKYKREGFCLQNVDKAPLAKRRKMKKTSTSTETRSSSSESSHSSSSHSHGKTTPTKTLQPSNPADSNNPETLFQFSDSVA
Chain of FGF-R1 (P11362 22-822, species assumed): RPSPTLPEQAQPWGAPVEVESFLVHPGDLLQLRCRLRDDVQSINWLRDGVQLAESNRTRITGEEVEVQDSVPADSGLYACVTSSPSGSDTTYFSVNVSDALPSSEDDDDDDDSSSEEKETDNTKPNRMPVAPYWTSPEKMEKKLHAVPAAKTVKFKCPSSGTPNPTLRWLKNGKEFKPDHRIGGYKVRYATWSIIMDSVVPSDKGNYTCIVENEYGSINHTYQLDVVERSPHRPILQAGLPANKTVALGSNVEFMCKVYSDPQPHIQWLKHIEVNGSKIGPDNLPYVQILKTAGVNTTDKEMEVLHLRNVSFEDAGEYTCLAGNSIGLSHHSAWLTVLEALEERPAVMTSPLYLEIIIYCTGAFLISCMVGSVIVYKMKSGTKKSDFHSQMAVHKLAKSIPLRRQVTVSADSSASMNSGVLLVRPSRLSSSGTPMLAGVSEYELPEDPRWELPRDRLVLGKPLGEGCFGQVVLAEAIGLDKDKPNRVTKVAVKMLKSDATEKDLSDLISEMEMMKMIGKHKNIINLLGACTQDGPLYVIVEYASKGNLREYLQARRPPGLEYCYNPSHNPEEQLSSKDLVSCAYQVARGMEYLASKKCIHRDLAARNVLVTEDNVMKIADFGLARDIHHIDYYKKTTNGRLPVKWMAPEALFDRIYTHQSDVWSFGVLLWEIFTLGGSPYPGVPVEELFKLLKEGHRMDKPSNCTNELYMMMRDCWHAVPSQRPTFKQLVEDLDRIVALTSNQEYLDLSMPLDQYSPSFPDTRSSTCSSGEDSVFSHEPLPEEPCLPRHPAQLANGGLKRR

Take `Cc1cc(C(C#N)c2ccc(Cl)cc2)c(Cl)cc1NC(=O)c1cc(I)cc(I)c1O` (stereo not shown) [Closantel]: in the series with humans, the “adverse effects in humans” value is “weakness, visual impairment and blindness”.

Consider `Cc1cc(C(C#N)c2ccc(Cl)cc2)c(Cl)cc1NC(=O)c1cc(Cl)ccc1O` (stereo not shown) [ZT-1a, 5-chloro-N-(5-chloro-4-((4-chlorophenyl)(cyano)methyl)-2-methylphenyl)-2-hydroxy-benzamide], for which the “increase of activity of KCC2 double mutant (86Rb+ uptake)” value in [1] was determined as 7±2%. For the same compound, in the series with wild type KCC2, the “activation of WT KCC2 (86Rb+ uptake)” value was more than 2.6 fold. For the same compound, the “reduction of IVH-induced expression of pNKCC1” value in the series with pNKCC1 worked out at 69±4.3%. Besides, the “EC tract FA values in the IL hemisphere” value in series [2] is “did not change”. Moreover, the “% residual kinase activity” value was 126 ± 4% in the series with AMPK (hum) (1 μM) and 108 ± 4% with AMPK (hum) (10 μM). Moreover, the remaining activity at 1 µM on FGF-R1 (1 μM) turned out to be 93 ± 6%; on HIPK2 (1 μM) it was 90 ± 14%; at MAPKAP-K2 (MAPKAP-K2, 1 μM, read-out: % residual kinase activity), 91 ± 13%; at MARK2 (1 μM), 103 ± 8%; at MSK1 (1 μM), 114 ± 6%; at ROCK2 (1 μM), 109 ± 6%. Moreover, the remaining activity at 1 µM on RSK1 (1 μM) came to 95 ± 2%. Moreover, the remaining activity at 10 µM turned out to be 101 ± 15% at FGF-R1 (10 μM); 91 ± 4% at HIPK2 (10 μM); 13 ± 7% on MAPKAP-K2 (MAPKAP-K2, 10 μM, read-out: % residual kinase activity); 89 ± 15% at MARK2 (10 μM); 112 ± 14% at MSK1 (10 μM); 101 ± 10% on ROCK2 (10 μM). In addition, on RSK1 (10 μM), the remaining activity at 10 µM was determined as 87 ± 4%. In addition, on MAPKAP-K2 (10 μM, read-out: inhibition of MAPKAP-K2 activity compared to DMSO control), the inhibition at 10 µM was determined as 85 ± 7%.
